Results as given in publication PMC10035947, “Development of novel anilinoquinazoline-based carboxylic acids as non-classical carbonic anhydrase IX and XII inhibitors” (Journal of Enzyme Inhibition and Medicinal Chemistry, 2023).
pKi: −log10 of the molar value.

What was measured:
[1] = target: T1, hCA I (Homo sapiens, UniProt P00915); assay: stopped flow CO2 hydrase assay; type: biochemical; conditions: mean from 3 assays
T1 construct: made in house
Protocol: (§1) Carbonic anhydrase inhibition assay
(§2) The carbonic anhydrase catalyzed CO2 hydration actions for the quinazoline-based […]
(§3) Photophysics stopped-flow, as described previously. The enzymes are recombinant proteins prepared in our lab. Phenol red (at a concentration of 0.2 mM) has been used as indicator, working at the absorbance maximum of 557 nm, with 20 mM Hepes (pH 7.5) as buffer, and 20 mM Na2SO4 (for maintaining constant the ionic strength), following the initial rates of the CA- […]
(§4) 1.7 to 17 mM for the determination of the kinetic parameters and inhibition constants. For each […]
(§5) initial velocity. The uncatalyzed rates were determined in the same manner and subtracted from the total observed rates. Stock solutions of inhibitor (0.1 mM) were prepared in distilled-deionized water and dilutions up to 0.01 nM were done thereafter with the assay buffer. Inhibitor and enzyme solutions were preincubated together for 15 min at room temperature prior to assay, in order to allow for the formation of the E-I complex. The inhibition constants were obtained by non-linear least-squares methods using PRISM 3 and the Cheng-Prusoff equation, and represent the mean from at least three different determinations.

[2] = target: T2, hCA IX (Homo sapiens, UniProt Q16790); assay: stopped flow CO2 hydrase assay; type: biochemical
T2 construct: made in house
Protocol: as §1, §2, §3, §4, §5

[3] = target: T3, hCA XII (Homo sapiens, UniProt O43570); assay: stopped flow CO2 hydrase assay; type: biochemical
T3 construct: made in house
T3 sequence (O43570 25-354): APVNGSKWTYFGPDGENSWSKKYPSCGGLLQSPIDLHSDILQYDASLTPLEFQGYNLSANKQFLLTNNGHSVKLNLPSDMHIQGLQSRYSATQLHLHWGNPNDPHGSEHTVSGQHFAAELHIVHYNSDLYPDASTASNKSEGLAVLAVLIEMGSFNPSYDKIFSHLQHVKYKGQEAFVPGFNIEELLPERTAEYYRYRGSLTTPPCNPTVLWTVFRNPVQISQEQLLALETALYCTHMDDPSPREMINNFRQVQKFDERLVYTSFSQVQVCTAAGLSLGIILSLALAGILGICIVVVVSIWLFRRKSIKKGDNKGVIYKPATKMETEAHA
Protocol: as §1, §2, §3, §4, §5

[4] = tested on: CCRF-CEM; assay: NCI SRB assay; type: cell-based, human
[5] = tested on: K-562; assay: NCI SRB assay; type: cell-based, human
[6] = tested on: MOLT-4; assay: NCI SRB assay; type: cell-based, human
[7] = tested on: A549/ATCC; assay: NCI SRB assay; type: cell-based, human; conditions: A549/ATCC
[8] = tested on: EKVX; assay: NCI SRB assay; type: cell-based, human
[9] = tested on: NCI-H226; assay: NCI SRB assay; type: cell-based, human
[10] = tested on: NCI-H522; assay: NCI SRB assay; type: cell-based, human
[11] = tested on: HCT-116; assay: NCI SRB assay; type: cell-based, human
[12] = tested on: SW-620; assay: NCI SRB assay; type: cell-based, human
[13] = tested on: SF-295; assay: NCI SRB assay; type: cell-based, human
[14] = tested on: LOX IMVI; assay: NCI SRB assay; type: cell-based, human
[15] = tested on: MALME-3M; assay: NCI SRB assay; type: cell-based, human
[16] = tested on: M14; assay: NCI SRB assay; type: cell-based, human
[17] = tested on: SK-MEL-5; assay: NCI SRB assay; type: cell-based, human
[18] = tested on: OVCAR-3; assay: NCI SRB assay; type: cell-based, human
[19] = tested on: OVCAR-5; assay: NCI SRB assay; type: cell-based, human
[20] = tested on: OVCAR-8; assay: NCI SRB assay; type: cell-based, human
[21] = tested on: NCI/ADR-RES; assay: NCI SRB assay; type: cell-based, human
[22] = tested on: 786-0; assay: NCI SRB assay; type: cell-based, human
[23] = tested on: A498; assay: NCI SRB assay; type: cell-based, human
[24] = tested on: SN12C; assay: NCI SRB assay; type: cell-based, human; conditions: SN12C
[25] = tested on: DU-145; assay: NCI SRB assay; type: cell-based, human
[26] = tested on: MCF7; assay: NCI SRB assay; type: cell-based, human
[27] = tested on: BT-549; assay: NCI SRB assay; type: cell-based, human
[28] = tested on: MDA-MB-468; assay: NCI SRB assay; type: cell-based, human

T1 sequence (P00915 whole entry): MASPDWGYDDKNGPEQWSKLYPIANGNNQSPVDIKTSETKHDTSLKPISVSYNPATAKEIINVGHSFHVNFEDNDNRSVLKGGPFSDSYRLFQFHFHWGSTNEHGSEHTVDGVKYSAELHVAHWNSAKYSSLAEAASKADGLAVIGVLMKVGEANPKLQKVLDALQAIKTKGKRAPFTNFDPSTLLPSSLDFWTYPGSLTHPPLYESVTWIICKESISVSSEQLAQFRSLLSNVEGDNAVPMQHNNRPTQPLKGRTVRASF

## Cc1cccc(-c2nc(Nc3ccccc3C(=O)O)c3ccccc3n2)c1 [6a, 2-((2-(m-Tolyl)quinazolin-4-yl)amino)benzoic acid]
[1]
  pKi: < 4.00
[2]; KI hCA I / KI hCA IX
  Selectivity ratio I/IX: 2.4
[2]; KI hCA II / KI hCA IX
  Selectivity ratio II/IX: 2.00
[2]; mean from 3 assays
  pKi: 4.37
[3]; KI hCA I / KI hCA XII
  Selectivity ratio I/XII: 11.1
[3]; KI hCA II / KI hCA XII
  Selectivity ratio II/XII: 9.47
[3]; mean from 3 assays
  pKi: 5.05
[4]; 10 μM
  GI%: 82%
[4]; 1.00E-5 Molar
  Growth Percent: 17.83%
[5]; K-562, 10 μM
  GI%: 71%
[5]; K-562, 1.00E-5 Molar
  Growth Percent: 28.68%
[6]; MOLT-4, 10 μM
  GI%: 65%
[6]; MOLT-4, 1.00E-5 Molar
  Growth Percent: 34.28%
[7]; 10 μM
  GI%: 56%
[7]; 1.00E-5 Molar
  Growth Percent: 43.63%
[8]; 10 μM
  GI%: 79%
[8]; 1.00E-5 Molar
  Growth Percent: 20.98%
[9]; NCI-H226, 10 μM
  GI%: 64%
[9]; NCI-H226, 1.00E-5 Molar
  Growth Percent: 36.13%
[10]; NCI-H522, 10 μM
  GI%: 40%
[10]; NCI-H522, 1.00E-5 Molar
  Growth Percent: 59.94%
[11]; HCT-116, 10 μM
  GI%: 78%
[11]; HCT-116, 1.00E-5 Molar
  Growth Percent: 22.67%
[12]; SW-620, 10 μM
  GI%: 65%
[12]; SW-620, 1.00E-5 Molar
  Growth Percent: 35.45%
[13]; SF-295, 10 μM
  GI%: 73%
[13]; SF-295, 1.00E-5 Molar
  Growth Percent: 27.07%
[14]; 10 μM
  GI%: 64%
[14]; 1.00E-5 Molar
  Growth Percent: 36.42%
[15]; 10 μM
  GI%: 63%
[15]; 1.00E-5 Molar
  Growth Percent: 37.17%
[16]; M14, 10 μM
  GI%: 75%
[16]; M14, 1.00E-5 Molar
  Growth Percent: 25.25%
[17]; SK-MEL-5, 10 μM
  GI%: 94%
[17]; SK-MEL-5, 1.00E-5 Molar
  Growth Percent: 6.01%
[18]; OVCAR-3, 10 μM
  GI%: 66%
[18]; OVCAR-3, 1.00E-5 Molar
  Growth Percent: 34.15%
[19]; OVCAR-5, 10 μM
  GI%: 23%
[19]; OVCAR-5, 1.00E-5 Molar
  Growth Percent: 77.00%
[20]; OVCAR-8, 10 μM
  GI%: 40%
[20]; OVCAR-8, 1.00E-5 Molar
  Growth Percent: 60.34%
[21]; 10 μM
  GI%: 75%
[21]; 1.00E-5 Molar
  Growth Percent: 24.78%
[22]; 786-0, 10 μM
  GI%: 75%
[22]; 786-0, 1.00E-5 Molar
  Growth Percent: 25.01%
[23]; A498, 10 μM
  GI%: 52%
[23]; A498, 1.00E-5 Molar
  Growth Percent: 47.56%
[24]; 10 μM
  GI%: 59%
[24]; 1.00E-5 Molar
  Growth Percent: 40.74%
[25]; DU-145, 10 μM
  GI%: 50%
[25]; DU-145, 1.00E-5 Molar
  Growth Percent: 50.47%
[26]; MCF7, 10 μM
  GI%: 76%
[26]; MCF7, 1.00E-5 Molar
  Growth Percent: 23.97%
[27]; BT-549, 10 μM
  GI%: 100%
[27]; BT-549, 1.00E-5 Molar
  Growth Percent: -0.68%
[28]; MDA-MB-468, 10 μM
  GI%: 115%
[28]; MDA-MB-468, 1.00E-5 Molar
  Growth Percent: -15.06%
